Measurements reported in US9617304B2, “Pharmaceutical composition containing an endocytic motif and protein transduction domains for preventing or treating cancer” (Korea Research Institute Of Bioscience And Biotechnology, priority 2011, dated 2017).

B1: Tac/3S: fusion protein of Tac and 3S polypeptide (protein)
chain: ELCDDDPPEIPHATFKAMAYKEGTMLNCECKRGFRRIKSGSLYMLCTGNSSHSSWDNQCQCTSSATRNTTKQVTPQPEEQKERKTTEMQSPMQPVDQASLPGHCREPPPWENEATERIYHFVVGQMVYYQCVQGYRALHRGPAESVCKMTHGKTRWTQPQLICTGEMETSQFPGEEKPQASPEGRPESETSCLVTTTDFQIQTEMAATMETSIFTTEYQKCVAPYPSLLSSEDNA

Experiments:
Tac/3S chimeric protein = assay: Endocytosis of Tac/3S chimeric protein in COS-7 cells after pretreatment with inhibitors; format: cell-based; conditions: for endocytosis of Tac/3S chimeric protein: COS-7, 100 μg/ml ConA, 80 μM Dynasore, 1 μM Go6976, 1 μM K252a, 1 μM Vinblastine, 30 minutes pretreatment
Procedure: Each of plasmid DNAs encoding Tac chimeric proteins illustrated in FIG. 2 was expressed in COS-7 cell line to induce endocytosis. To quantify endocytosis percentage, the following method was used. First, plasmid DNA was transfected into COS-7 cell line, and next day, cells were suspended in DMED supplemented with 10% FBS, and seeded onto an 8-well slide glass (Thermo, 154534) to 50% confluency. Next day, to block endocytosis, cells were transferred at 4° C. and left for 30 minutes. Anti-Tac (BD BIOSCIENCES, 347640) antibody was diluted in DMEM supplemented with 10% FBS at a ratio of 1:10, and treated at 4° C. for 30 minutes. The cells were washed with medium three times. To induce endocytosis again, the cells were transferred at 5% CO2 and 37° C., and left for different time periods. The cells were fixed in 4% paraformaldehyde for 45 minutes at room temperature. To detect cell surface anti-Tac antibody, anti-mouse IgG-ALEXA FLUOR 488 (INVITROGEN, A-11001) was diluted with PBS containing 3% normal goat serum (Vector, S-1000) at a ratio of 1:500, and treated at room temperature for 1 hour. Then, the cells were washed with PBST for 5 minutes three times. For permeablization and blocking, the cells were treated with PBST containing 3% normal goat serum at room temperature for 1 hour. Next, to detect intracellular Tac, anti-mouse IgG-ALEXA FLUOR 568 (INVITROGEN, A11061) was diluted with PBST containing 3% normal goat serum at a ratio of 1:500, and treated at room temperature for 1 hour. The cells were washed with PBST three times, and mounted in Mounting Medium with DAPI (Vector, H-1200). Next day, the sample was examined by fluorescence microscopy (Olympus IX2-UCB). For treatment of inhibitors, 100 μg/ml ConA (SIGMA, C0412), 80 μM Dynasore (SIGMA, D7693), 1 μM Go6976 (CALBIOCHEM, 365250), 1 μM K252a (INVITROGEN, PHZ1131) and 1 μM Vinblastine (SIGMA, V1377) were pretreated at 5% CO2 and 37° C. for 30 minutes, before endocytosis assay.

COS-7 cells = assay: Endocytosis of Tac chimeric proteins expressed in COS-7 cells, fluorescence microscopy; format: cell-based
Procedure: To quantify endocytosis percentage, the following method was used. First, plasmid DNA was transfected into COS-7 cell line, and next day, cells were suspended in DMED supplemented with 10% FBS, and seeded onto an 8-well slide glass (Thermo, 154534) to 50% confluency. Next day, to block endocytosis, cells were transferred at 4° C. and left for 30 minutes. Anti-Tac (BD BIOSCIENCES, 347640) antibody was diluted in DMEM supplemented with 10% FBS at a ratio of 1:10, and treated at 4° C. for 30 minutes. The cells were washed with medium three times. To induce endocytosis again, the cells were transferred at 5% CO2 and 37° C., and left for different time periods. The cells were fixed in 4% paraformaldehyde for 45 minutes at room temperature. […] Next day, the sample was examined by fluorescence microscopy (Olympus IX2-UCB). […] To quantify endocytosis of Tac chimeric proteins expressed in COS-7 cells over time, the following Equation was used. […] As such, green fluorescence intensity indicates the amount of cell surface Tac, and red fluorescence intensity signifies those of endocytosed Tac plus partial cell surface Tac. […] Partially detected surface Tac by anti-mouse IgG-ALEXA FLUOR 568 was measured by comparing fluorescence intensity between green and red at 0 min in which no endocytosis occurred. Red fluorescence intensity was 0.429-fold or green fluorescence intensity at 0 min, which was defined as α. […]

Row | Molecule | endocytosis of Tac/3S chimeric protein (Tac/3S chimeric protein) | transportation of Tac/3S protein to the perinuclear region (Tac/3S chimeric protein; COS-7, 1 μM Vinblastine) | subcellular localization (colocalization test) (COS-7 cells)
1 | O=C(N/N=C/c1ccc(O)c(O)c1)c1cc2ccccc2cc1O [Dynasore] | inhibited |  | 
2 | Cn1c2ccccc2c2c3c(c4c5ccccc5n(CCC#N)c4c21)CNC3=O [Go6976] | inhibited |  | 
3 | COC(=O)[C@@]1(O)C[C@H]2O[C@]1(C)n1c3ccccc3c3c4c(c5c6ccccc6n2c5c31)C(=O)NC4 [K252a] | not inhibited |  | 
4 | CC[C@]1(O)C[C@@H]2CN(CCc3c([nH]c4ccccc34)[C@@](C(=O)OC)(c3cc4c(cc3OC)N(C)[C@H]3[C@@](O)(C(=O)OC)[C@H](OC(C)=O)[C@]5(CC)C=CCN6CC[C@]43[C@@H]65)C2)C1 [Vinblastine] | not inhibited | blocked | 
5 | Concannavalin A [ConA] | inhibited |  | 
6 | B1 |  |  | partially merged with ER tracker
